Assay results from patent publication US11649245B2, “Cyclopropylamine compound as LSD1 inhibitor and use thereof” (HELIOEAST PHARMACEUTICAL CO., LTD., priority 2018, dated 2023).
Structures can show the parent of a compound that is named as a salt. Values belong to the compound of their own block, whether it stands above or below them.

Experiments:
human LSD1 = human LSD1 (Homo sapiens, UniProt O60341); assay: In vitro enzyme activity screening against LSD1 (HRP/Amplex Red fluorescence coupling enzyme method); assay type: biochemical; conditions: human LSD1, histone H3K4me peptide substrate 20 μM
Procedure: The purpose of this test was to detect the in vitro inhibitory activity of the compounds against LSD1. The enzyme used in this test was human LSD1, the standard substrate was histone H3K4me peptide (20 μM), the fluorescence coupling enzyme method was used to determine the activity of the compound by combining horseradish peroxidase (HRP) and fluorescent reagent Amplex Red to detect the H2O2 generation as a result of the reaction of LSD1. Compounds were tested in 10-dose IC50 mode with a 3-fold serial dilution starting at 10 μM. The enzyme and […] to start the reaction. Fluorescence detector: Envision, excitation wavelength: Ex/Em=530/590 […]

HL60 cells = assay: Antiproliferation activity on HL60 cells (CellTiter-Glo, 6 days); assay type: cell-based; conditions: Homo sapiens, HL-60, 144 h, incubated for 6 days
Description: Experimental purpose: to detect the antiproliferation activity of the compound to be tested on HL60 cells.
(§1) Experimental materials: RPMI-1640 culture medium, fetal bovine serum, penicillin/streptomycin antibiotics purchased from Wisent. CellTiter-Glo (chemiluminescent cell viability assay reagent) reagents purchased from Promega. HL60 cell line purchased from Nanjing Cobioer Co., Ltd. Nivo multi-label reader (PerkinElmer).
Experimental method: HL60 cells were planted in a white 384-well plate, 40 μL of cell suspension per well, 600 HL60 cells were contained therein. The cell plate was placed in a carbon dioxide incubator for overnight culture. The compounds to be tested were diluted 5-fold with a pipet until the 10th concentration, i.e., diluted from 2 mM to 1.024 nM, double duplicate well experiment was set. 78 μL of the culture medium was added to an intermediate plate, and then 2 μL per well of the serially diluted compounds were transferred to the corresponding positions on the intermediate plate, after mixing, 10 μL per well was transferred to the cell plate. The cell plate was incubated in a carbon dioxide incubator for 6 days. Another cell plate was prepared and the signal value on the day of dosing was read as the maximum value (Max value in the equation below) to participate in the data analysis. 20 μL of chemiluminescent cell viability assay reagent was added to each well of this cell plate, which was incubated at room temperature for 10 minutes to stabilize the luminescence signal. The multi-label reader was used for reading.
(§2) Data analysis: the equation (Sample-Min)/(Max-Min)*100% was used to convert the original data into the inhibition rate, the IC50 value can be obtained by curve fitting of four-parameters (“log(inhibitor) vs. response—Variable slope” mode in GraphPad Prism)).

MV-4-11 cells = assay: Antiproliferation activity on MV-4-11 cells (CellTiter-Glo, 6 days); assay type: cell-based; conditions: Homo sapiens, MV4-11, 144 h, incubated for 6 days
Description: Experimental purpose: to detect the antiproliferation activity of the compound to be tested on MV-4-11 cells.
as §1, with “IMDM” for “RPMI-1640”, “MV-4-11” for “HL60”, “line was” for “line”, “Multi-Marker Analyzer” for “multi-label reader”
Experimental method: MV-4-11 cells were planted in a white 96-well plate, 80 μL of cell suspension per well, which contained 6000 MV-4-11 cells. The cell plate was placed in a carbon dioxide incubator for overnight culture.
The compounds to be tested were diluted 5-fold with a pipet until the 8th concentration, i.e., diluted from 2 mM to 25.6 nM, double duplicate well experiment was set. 78 μL of the culture medium was added to an intermediate plate, and then 2 μL per well of the serially diluted compounds were transferred to the corresponding positions on the intermediate plate, after mixing, 20 μL per well was transferred to the cell plate. The cell plate was incubated in a carbon dioxide incubator for 6 days. Another cell plate was prepared and the signal value on the day of dosing was read as the maximum value (Max value in the equation below) to participate in the data analysis. 25 μL of the chemiluminescent cell viability assay reagent was added to each well of this cell plate, which was incubated at room temperature for 10 minutes to stabilize the luminescence signal. The multi-label analyzer was used for reading.
as §2

[1] = In vivo pharmacokinetics in CD-1 mice; conditions: male, CD-1, mouse, plasma, male CD-1 mice; for half-life / clearance / Vd: iv, 1 mg/kg; for half-life: IV 1 mg/kg, read-out: Half-life T1/2 (IV) (converted); for clearance / Vd / Cmax: study doses 1 mg/kg intravenous, 2 mg/kg oral; for clearance: read-out: Clearance CL; for Vd: read-out: Volumes of distribution Vdss; for Cmax: route not given, read-out: Max concentration Cmax; for AUC(0-t) / bioavailability: po, 2 mg/kg; for AUC(0-t): PO 2 mg/kg, read-out: The area under the plasma concentration-time curve AUC0-last PO; for bioavailability: oral 2 mg/kg vs intravenous 1 mg/kg, read-out: Bioavailability F
Procedure: CD-1 mice (male, 7-9 weeks old, Shanghai Slac)
The rodent pharmacokinetic characteristics after intravenous injection and oral administration of the compounds were tested by standard protocols, in the experiment, the candidate compounds were formulated into clear solutions and administrated to mice via a single intravenous injection and oral administration. The vehicle for intravenous injection and oral administration was a mixed solution of 10% of dimethyl sulfoxide and 90% of 10% hydroxypropyl β cyclodextrin. This project used four male CD-1 mice, two mice were administered intravenously, with a dose of 1 mg/kg, and plasma samples were collected at 0 hour (before administration) and 0.0833, 0.25, 0.5, 1, 2, 4, 8, 24 hours after administration. The other two mice were orally administered by gavage, with a dose of 2 mg/kg, plasma samples were collected at 0 hour (before administration) and 0.25, 0.5, 1, 2, 4, 8, 24 hours after administration, whole blood samples were collected within 24 hours, which were centrifuged at 3000 g for 15 minutes, and the supernatants were separated to obtain plasma samples, 4 times volume of acetonitrile solutions containing internal standard were added to precipitate the protein, the mixtures were centrifuged to obtain the supernatants, the supernatants were added with water of equal volume and centrifuged again to take the supernatant for injection, and the blood drug concentration was quantitatively analyzed by the LC-MS/MS analysis method, and pharmacokinetic parameters were calculated, such as max concentration (Cmax), clearance (CL), half-life (T1/2), volumes of distribution (Vdss), the area under the plasma concentration-time curve (AUC0-last), bioavailability (F) etc.

NCI-H1417 cells = assay: Antiproliferation activity on NCI-H1417 cells (CellTiter-Glo, 10 days); assay type: cell-based, human; conditions: Homo sapiens, NCI-H1417, 240 h, incubated for 10 days
Procedure: Experimental purpose: to detect the antiproliferation activity of the compounds on NCI-H1417 cells.
Experimental materials: RPMI 1640 culture medium, fetal bovine serum, Promega CellTiter-Glo reagent. NCI-H1417 cell line purchased from ATCC. Envision multi-label reader (PerkinElmer).
Experimental method: the compounds were dissolved to 10 mM, then the compounds were diluted 5 times with DMSO in a compound plate, the compounds were diluted 3-fold with Bravo from a starting concentration of 2 mM to the 10th concentration, 250 nL of the solutions were transferred to the upper and lower duplicate wells on a blank 384 cell plate by Echo transfer plate, cell suspension of per well/1000 cells/50 μL was added to the transferred 250 nL DMSO/compound, the compounds were diluted 200-fold, i.e., the initial action concentration was 10 μM. The cell plate was placed in a carbon dioxide incubator and incubated for 10 days. 25 μL of Promega CellTiter-Glo reagent was added to each well on the cell plate and was shaken at room temperature for 10 minutes to stabilize the luminescence signal. Readings were performed by PerkinElmer Envision multi-label analyzer.
Data analysis: the equation (Max-Ratio)/(Max-Min)*100% was used to convert the original data into the inhibition rate, the value of IC50 can be obtained by curve fitting of four-parameters (the 205 mode in XLFITS, iDBS).

Compound: O=C(O)c1ccc(CN2CCC3(CC2)OCC3N[C@@H]2C[C@H]2c2ccccc2)cc1 (stereo partly shown) [Hydrochloride of the compound 5]
- IC50 (human LSD1): 3850 nM

Compound: O=C(O)C12CCC(CN3CCC4(CC3)CC(N[C@@H]3C[C@H]3c3ccccc3)CO4)(CC1)CC2 (stereo partly shown) [Hydrochloride of the compound 28]
- IC50 (human LSD1): 1460 nM

Compound: O=C(O)C1(CN2CCC3(CC2)CC(N[C@@H]2C[C@H]2c2ccccc2)CO3)CC1 (stereo partly shown) [Hydrochloride of the compound 31]
- IC50 (human LSD1): 2120 nM

Compound: O=C(O)c1ccc(CN2CC3(CC(N[C@@H]4C[C@H]4c4ccccc4)CCO3)C2)cc1 (stereo partly shown) [Hydrochloride of the compound 4]
- IC50 (human LSD1): 940 nM

Compound: O=C(O)c1ccc(C(=O)N2CCC3(CC2)CC(N[C@@H]2C[C@H]2c2ccccc2)CO3)cc1 (stereo partly shown) [Hydrochloride of the compound 22]
- IC50 (human LSD1): 908 nM

Compound: O=C(O)Cc1ccc(N2CCC3(CC2)CC(N[C@@H]2C[C@H]2c2ccccc2)CO3)cc1 (stereo partly shown) [Hydrochloride of the compound 12]
- IC50 (human LSD1): 1380 nM

Compound: O=C(O)C1CC(CN2CCC3(CC2)CC(N[C@@H]2C[C@H]2c2ccccc2)CO3)C1 (stereo partly shown) [Hydrochloride of the compound 29]
- IC50 (human LSD1): 1670 nM

Compound: O=C(O)CC1(N2CCC3(CC2)CC(N[C@@H]2C[C@H]2c2ccccc2)CO3)CNC1 (stereo partly shown) [Hydrochloride of the compound 32]
- IC50 (human LSD1): 1160 nM
- IC50 (NCI-H1417 cells): 3.97 nM
- IC50 (HL60 cells): 0.55 nM
- IC50 (MV-4-11 cells): 1.9 nM

Compound: O=C(O)c1ccc(OC(=O)N2CCC3(CC2)CC(N[C@@H]2C[C@H]2c2ccccc2)CO3)cc1 (stereo partly shown) [Hydrochloride of the compound 25]
- IC50 (human LSD1): 1720 nM

Compound: O=C(O)c1ccc(NC(=O)N2CCC3(CC2)CC(N[C@@H]2C[C@H]2c2ccccc2)CO3)cc1 (stereo partly shown) [Hydrochloride of the compound 1]
- IC50 (human LSD1): 1690 nM

Compound: O=C(O)C1(CN2CCC3(CC2)CC(N[C@@H]2C[C@H]2c2ccccc2)CO3)CCC1 (stereo partly shown) [Hydrochloride of the compound 30]
- IC50 (human LSD1): 1140 nM
- IC50 (NCI-H1417 cells): 91.4 nM
- IC50 (HL60 cells): 337 nM
- IC50 (MV-4-11 cells): 33.1 nM

Compound: O=C(O)[C@H]1CC[C@H](CN2CCC3(CC2)CC(N[C@@H]2C[C@H]2c2ccccc2)CO3)CC1 (stereo partly shown) [Hydrochloride of the compound 27]
- IC50 (human LSD1): 1780 nM

Compound: O=C(O)c1ccc(CN2CC3(CC(N[C@@H]4C[C@H]4c4ccccc4)CO3)C2)cc1 (stereo partly shown) [Hydrochloride of the compound 2]
- IC50 (human LSD1): 1580 nM

Compound: O=C(O)c1ccc(N2CCC3(CC2)CC(N[C@@H]2C[C@H]2c2ccccc2)CO3)cc1 (stereo partly shown) [Hydrochloride of the compound 11]
- IC50 (human LSD1): 2880 nM

The next compounds have a lower IC50 (human LSD1) than those just listed; values first:

- IC50 (human LSD1): 37.8 nM
Compound: Fc1ccc(CN2CCC3(CC2)CC(N[C@@H]2C[C@H]2c2ccccc2)CO3)cc1 (stereo partly shown) [Hydrochloride of the compound 9]

- IC50 (human LSD1): 46.6 nM
Compound: Clc1ccc(CN2CCC3(CC2)CC(N[C@@H]2C[C@H]2c2ccccc2)CO3)cc1 (stereo partly shown) [Hydrochloride of the compound 13]

- IC50 (human LSD1): 92.9 nM
- IC50 (HL60 cells): 20.4 nM
- IC50 (MV-4-11 cells): 16 nM
Compound: O=C(O)c1cnc(CN2CCC3(CC2)CC(N[C@@H]2C[C@H]2c2ccccc2)CO3)cn1 (stereo partly shown) [Hydrochloride of the compound 18]

- IC50 (human LSD1): 96.7 nM
Compound: O=C(O)c1cccc(CN2CCC3(CC2)CC(N[C@@H]2C[C@H]2c2ccccc2)CO3)c1 (stereo partly shown) [Hydrochloride of the compound 3]

- IC50 (human LSD1): 78.4 nM
Compound: FC(F)(F)c1ccc(CN2CCC3(CC2)CC(N[C@@H]2C[C@H]2c2ccccc2)CO3)cc1 (stereo partly shown) [Hydrochloride of the compound 10]

- IC50 (human LSD1): 41.5 nM
- IC50 (HL60 cells): 39.1 nM
- IC50 (MV-4-11 cells): 38.3 nM
Compound: c1ccc([C@@H]2C[C@H]2NC2COC3(CCN(Cc4ccc(-c5nn[nH]n5)cc4)CC3)C2)cc1 (stereo partly shown) [Hydrochloride of the compound 24]

- IC50 (human LSD1): 271 nM
Compound: O=C(O)c1ccc(CN2CCC3(CC2)CC(N[C@@H]2C[C@H]2c2ccccc2)CCO3)cc1 (stereo partly shown) [Hydrochloride of the compound 26]

- IC50 (human LSD1): 45.1 nM
Compound: O=C(O)c1ccccc1CN1CCC2(CC1)CC(N[C@@H]1C[C@H]1c1ccccc1)CO2 (stereo partly shown) [Hydrochloride of the compound 7]

- IC50 (human LSD1): 118 nM
- half-life [1]: 0.874 h
- clearance [1]: 16.9 mL/min/kg
- Vd [1]: 0.551 L/kg
- Cmax [1]: 629 nM
- AUC(0-t) [1]: 1.38 µM·h
- bioavailability [1]: 28.7%
Compound: O=C(O)c1ccc(CN2CCC3(CC2)CC(N[C@@H]2C[C@H]2c2ccccc2)CO3)nc1 (stereo partly shown) [Hydrochloride of the compound 14]

- IC50 (human LSD1): 64.6 nM
- IC50 (NCI-H1417 cells): 1.68 nM
- half-life [1]: 4.32 h
- clearance [1]: 68.7 mL/min/kg
- Vd [1]: 18.6 L/kg
- Cmax [1]: 144 nM
- AUC(0-t) [1]: 0.36 µM·h
- bioavailability [1]: 37.2%
Compound: NC(=O)c1ccc(CN2CCC3(CC2)CC(N[C@@H]2C[C@H]2c2ccccc2)CO3)cc1 (stereo partly shown) [Hydrochloride of the compound 23]

- IC50 (human LSD1): 39.7 nM
Compound: COc1ccc(CN2CCC3(CC2)CC(N[C@@H]2C[C@H]2c2ccccc2)CO3)cc1 (stereo partly shown) [Hydrochloride of the compound 8]

- IC50 (human LSD1): 48.2 nM
Compound: c1ccc([C@@H]2C[C@H]2NC2COC3(CCN(CCc4nn[nH]n4)CC3)C2)cc1 (stereo partly shown) [Hydrochloride of the compound 33]
